Measurements reported in US20070082876A1, “Novel C18 modified retrosteroids as progesterone receptor modulator compounds” (Solvay Pharmaceuticals GmbH, priority 2005, published 2007).

What follows are compounds tested on cycling guinea pigs (assay: Guinea pig model (luteolysis and uterine PR expression in cycling guinea pigs)). Details: 10mg/kg s.c. once daily on days 10-17 of the cycle; FIG. 1.
Format: in vivo
Text: An assay how to assess the progesterone antagonists (PAs) and progesterone receptor modulators (PRMs) with respect to PR agonistic and antagonistic activities in vivo is described by Elger et al [2000] and within WO 04/014935 using cycling guinea pigs. In this assay, pure PR antagonists inhibit luteolysis at the end of the ovarian cycle, whereas PR agonist and SPRMs support luteolysis, i.e. this is a very sensitive in vivo method to reveal residual agonistic activity of SPRMs. Inhibition of luteolysis is reflected by elevated serum progesterone levels at day 10-17 and inhibition of uterine prostaglandin F2α, as well as by certain histological characteristics in uterus and ovary, such as increased expression of progesterone receptors and decreased glandular differentiation in the uterus, as well as persistence of large intact corpora lutea up to day 18.
Adult female guinea pigs (strain Dunkin Hartley, Crl:HA; body weight 500-700 g) are purchased from Charles River (Sulzfeld, Germany). Blood samples are drawn from the Vena saphena three times a week to monitor ovarian cycles by determination of progesterone levels. […]
Antiluteolytic activity is evaluated by assessment of serum progesterone profiles throughout the treatment period from day 10 to day 17 (FIG. 1).
Antiprogestational effects on the uterus are assessed by determination of the degree of PR expression. […]

| SMILES | antiluteolytic activity (serum progesterone levels day 10 to day 17) |
| --- | --- |
| CC(=O)[C@H]1CC[C@H]2[C@@H]3C=CC4=CC(=O)CC[C@@]4(C)[C@@H]3CC[C@]12C [dydrogesterone, (9β,10α)-Pregna-4,6-diene-3,20-dione] | progesterone levels decrease |
| CC#C[C@]1(O)CC[C@H]2[C@@H]3CCC4=CC(=O)CCC4=C3[C@@H](c3ccc(N(C)C)cc3)C[C@@]21C [mifepristone] | do not decline |

What follows are compounds tested on progesterone receptor (alkaline phosphatase expression in T47D human breast carcinoma cells) (assay: Progesterone-dependent alkaline phosphatase expression assay (AP assay), agonistic and antagonistic mode). Details: 100 nM compound, inhibition of alkaline phosphatase induction by 1 nM Dydrogesterone, read-out: PI [100 nM] (% inhibition).
Format: cell-based
Method: The progesterone-dependent modulation of alkaline phosphatase expression was examined using T47D human breast carcinoma cells [Keydar et al., 1979]. The assay was performed as previously described by Di Lorenzo et al. (1991) with the modification of using Dydrogesterone as comparative progestin to determine the antagonistic and agonistic activity.
The cell line was purchased from CLS Cell Lines Service (Hildastrasse 21, D-69214 Eppelheim, Germany).
In brief, the cells were plated in 96-well plates at 40,000 cells/well using the following growth medium: RPMI 1640 with: 10% FBS, 1 mM Sodium Pyruvat MEM, 10 mM Hepes, 0.01 mg/ml Bovine insulin, and 25 μg/ml Gentamycin. After 24 h of cultivation, the growth medium was replaced with medium containing 2% fetal bovine serum and the test compounds were added to each well to achieve the appropriate compound concentration: For determination of agonistic activity only the test compounds were added; for measurement of antagonistic activity the test compounds and additionally Dydrogesterone as standard progesterone agonist was added to a final concentration of 1 nM. After 48 h of cultivation, the medium was removed and the cells were washed with 200 μl of Dulbecco's phosphate-buffered saline without calcium and magnesium (PBS(−)).
Then the cells were fixed with 3.7% formaldehyde in phosphate-buffered saline for 15 min at 22° C. After washing the cells with PBS, 100 μl of a […] (pNPP) solution (pNPP Liquid Substrate System; Sigma) was added to each well and incubated for 2 h at room temperature protected from light. The reaction was stopped with 100 μl 1N NaOH and the absorbance was measured with a spectrophotometer (Victor, Perkin Elmer) at 405 nm.
The results are expressed as alkaline phosphatase induction (as 100% with 1 nM Dydrogesterone) or inhibition (against alkaline phosphatase induction by 1 nM Dydrogesterone) at a certain concentration of test compound.
Calculations: % stimulation=(effect compound−basal)/(effect dydro 1 nM−basal)*100 % inhibition of 1 nM Dydro=100*{1−[(effect compound·basal)/(effect dydro 1 nM·basal)]}
For each compound the % inhibition (PI) and % stimulation (PS), respectively, at a compound concentration of 100 nM was determined. For selected compounds, the corresponding values were measured for several different concentrations, and subsequently were plotted against the concentration of the test compound, and used to calculate the IC50 value (for the antagonistic potency; the IC50 value is the concentration (nM), required to reduce the maximal response by 50%) and EC50 values (for the agonistic potency; the EC50 value is the effective concentration (nM) that produced 50% of the maximum response), respectively.

| SMILES | inhibition at 0.1 µM |
| --- | --- |
| CC(=O)[C@H]1CC[C@H]2[C@@H]3CCC4=CC(=O)CC[C@@]4(C)[C@@H]3CC[C@]12CCCc1ccc(/C=N/O)cc1 [No. 1] | 60% |
| CC(=O)[C@H]1CC[C@H]2[C@@H]3C=CC4=CC(=O)CC[C@@]4(C)[C@@H]3CC[C@]12CCCc1ccc(/C=N/O)cc1 [No. 2] | 77% |
| CCNC(=O)O/N=C/c1ccc(CCC[C@]23CC[C@@H]4[C@@H](CCC5=CC(=O)CC[C@]54C)[C@@H]2CC[C@@H]3C(C)=O)cc1 [No. 4] | 51% |
| CCNC(=O)O/N=C/c1ccc(CCC[C@]23CC[C@@H]4[C@@H](C=CC5=CC(=O)CC[C@]54C)[C@@H]2CC[C@@H]3C(C)=O)cc1 [No. 5] | 52% |
| CCNC(=O)O/N=C/c1ccc(CCC[C@]23CC[C@@H]4[C@@H](C=CC5=CC(=O)CC[C@]54C)[C@@H]2CC[C@]3(OC(=O)OCC)C(C)=O)cc1 [No. 6] | 32% |
| CC(=O)[C@H]1CC[C@H]2[C@@H]3C=CC4=CC(=O)CC[C@@]4(C)[C@@H]3CC[C@]12CCCc1ccc(C(N)=O)cc1 [No. 13] | 79% |
| CC(=O)[C@H]1CC[C@H]2[C@@H]3C=CC4=CC(=O)CC[C@@]4(C)[C@@H]3CC[C@]12CCCc1ccccc1 [compound 17] | 79% |
| COc1cccc(CCC[C@]23CC[C@@H]4[C@@H](C=CC5=CC(=O)CC[C@]54C)[C@@H]2CC[C@@H]3C(C)=O)c1 [compound 25] | 73% |
| COc1cc(CCC[C@]23CC[C@@H]4[C@@H](C=CC5=CC(=O)CC[C@]54C)[C@@H]2CC[C@@H]3C(C)=O)cc(OC)c1 [compound 29] | 69% |

Same assay, conditions: 48 h, 100 nM compound alone, alkaline phosphatase induction, 100% = 1 nM Dydrogesterone, read-out: PS [100 nM] (% stimulation)

| SMILES | activation at 0.1 µM |
| --- | --- |
| CC(=O)[C@H]1CC[C@H]2[C@@H]3CCC4=CC(=O)CC[C@@]4(C)[C@@H]3CC[C@]12CCCc1ccc(/C=N/O)cc1 [No. 1] | 1% |
| CC(=O)[C@H]1CC[C@H]2[C@@H]3C=CC4=CC(=O)CC[C@@]4(C)[C@@H]3CC[C@]12CCCc1ccc(/C=N/O)cc1 [No. 2] | 10% |
| CCNC(=O)O/N=C/c1ccc(CCC[C@]23CC[C@@H]4[C@@H](CCC5=CC(=O)CC[C@]54C)[C@@H]2CC[C@@H]3C(C)=O)cc1 [No. 4] | 4% |
| CCNC(=O)O/N=C/c1ccc(CCC[C@]23CC[C@@H]4[C@@H](C=CC5=CC(=O)CC[C@]54C)[C@@H]2CC[C@@H]3C(C)=O)cc1 [No. 5] | 35% |
| CCNC(=O)O/N=C/c1ccc(CCC[C@]23CC[C@@H]4[C@@H](C=CC5=CC(=O)CC[C@]54C)[C@@H]2CC[C@]3(OC(=O)OCC)C(C)=O)cc1 [No. 6] | 60% |
| CC(=O)[C@H]1CC[C@H]2[C@@H]3C=CC4=CC(=O)CC[C@@]4(C)[C@@H]3CC[C@]12CCCc1ccc(C(N)=O)cc1 [No. 13] | 7% |
| CC(=O)[C@H]1CC[C@H]2[C@@H]3C=CC4=CC(=O)CC[C@@]4(C)[C@@H]3CC[C@]12CCCc1ccccc1 [compound 17] | 8% |
| COc1cccc(CCC[C@]23CC[C@@H]4[C@@H](C=CC5=CC(=O)CC[C@]54C)[C@@H]2CC[C@@H]3C(C)=O)c1 [compound 25] | 12% |
| COc1cc(CCC[C@]23CC[C@@H]4[C@@H](C=CC5=CC(=O)CC[C@]54C)[C@@H]2CC[C@@H]3C(C)=O)cc(OC)c1 [compound 29] | 15% |

Same assay, conditions: agonistic potency

| SMILES | EC50 |
| --- | --- |
| CCNC(=O)O/N=C/c1ccc(CCC[C@]23CC[C@@H]4[C@@H](C=CC5=CC(=O)CC[C@]54C)[C@@H]2CC[C@]3(OC(=O)OCC)C(C)=O)cc1 [No. 6] | 50.1 nM |
| CC(=O)[C@H]1CC[C@H]2[C@@H]3C=CC4=CC(=O)CC[C@@]4(C)[C@@H]3CC[C@]12CCCc1ccccc1 [compound 17] | 25.1 nM |
| COc1cccc(CCC[C@]23CC[C@@H]4[C@@H](C=CC5=CC(=O)CC[C@]54C)[C@@H]2CC[C@@H]3C(C)=O)c1 [compound 25] | 15.8 nM |
| COc1cc(CCC[C@]23CC[C@@H]4[C@@H](C=CC5=CC(=O)CC[C@]54C)[C@@H]2CC[C@@H]3C(C)=O)cc(OC)c1 [compound 29] | 15.8 nM |

Same assay, conditions: antagonistic potency against 1 nM Dydrogesterone

| SMILES | IC50 |
| --- | --- |
| CC(=O)[C@H]1CC[C@H]2[C@@H]3CCC4=CC(=O)CC[C@@]4(C)[C@@H]3CC[C@]12CCCc1ccc(/C=N/O)cc1 [No. 1] | 31.6 nM |
| CC(=O)[C@H]1CC[C@H]2[C@@H]3C=CC4=CC(=O)CC[C@@]4(C)[C@@H]3CC[C@]12CCCc1ccc(/C=N/O)cc1 [No. 2] | 20 nM |
| CCNC(=O)O/N=C/c1ccc(CCC[C@]23CC[C@@H]4[C@@H](CCC5=CC(=O)CC[C@]54C)[C@@H]2CC[C@@H]3C(C)=O)cc1 [No. 4] | 50.1 nM |
| CCNC(=O)O/N=C/c1ccc(CCC[C@]23CC[C@@H]4[C@@H](C=CC5=CC(=O)CC[C@]54C)[C@@H]2CC[C@@H]3C(C)=O)cc1 [No. 5] | 5.01 nM |
| CC(=O)[C@H]1CC[C@H]2[C@@H]3C=CC4=CC(=O)CC[C@@]4(C)[C@@H]3CC[C@]12CCCc1ccc(C(N)=O)cc1 [No. 13] | 50.1 nM |

What follows are compounds tested against T1, bovine progesterone receptor (Bos taurus, UniProt F1N712) (assay: Progesterone receptor binding assay (CEREP, 3H-R5020 ligand, uterus tissue)). Details: bovine PR; 3H-R5020 as ligand, uterus tissue as receptor source; read-out: Progesterone Receptor binding (pKi) (converted).
T1 construct: uterus tissue as the source of progesterone receptor; tissue CEREP Progesterone receptor-814; host or cells: bovine uterus tissue (the cited method, Hurd & Moudgil 1988, used calf uterus)
T1 sequence (F1N712 1-914): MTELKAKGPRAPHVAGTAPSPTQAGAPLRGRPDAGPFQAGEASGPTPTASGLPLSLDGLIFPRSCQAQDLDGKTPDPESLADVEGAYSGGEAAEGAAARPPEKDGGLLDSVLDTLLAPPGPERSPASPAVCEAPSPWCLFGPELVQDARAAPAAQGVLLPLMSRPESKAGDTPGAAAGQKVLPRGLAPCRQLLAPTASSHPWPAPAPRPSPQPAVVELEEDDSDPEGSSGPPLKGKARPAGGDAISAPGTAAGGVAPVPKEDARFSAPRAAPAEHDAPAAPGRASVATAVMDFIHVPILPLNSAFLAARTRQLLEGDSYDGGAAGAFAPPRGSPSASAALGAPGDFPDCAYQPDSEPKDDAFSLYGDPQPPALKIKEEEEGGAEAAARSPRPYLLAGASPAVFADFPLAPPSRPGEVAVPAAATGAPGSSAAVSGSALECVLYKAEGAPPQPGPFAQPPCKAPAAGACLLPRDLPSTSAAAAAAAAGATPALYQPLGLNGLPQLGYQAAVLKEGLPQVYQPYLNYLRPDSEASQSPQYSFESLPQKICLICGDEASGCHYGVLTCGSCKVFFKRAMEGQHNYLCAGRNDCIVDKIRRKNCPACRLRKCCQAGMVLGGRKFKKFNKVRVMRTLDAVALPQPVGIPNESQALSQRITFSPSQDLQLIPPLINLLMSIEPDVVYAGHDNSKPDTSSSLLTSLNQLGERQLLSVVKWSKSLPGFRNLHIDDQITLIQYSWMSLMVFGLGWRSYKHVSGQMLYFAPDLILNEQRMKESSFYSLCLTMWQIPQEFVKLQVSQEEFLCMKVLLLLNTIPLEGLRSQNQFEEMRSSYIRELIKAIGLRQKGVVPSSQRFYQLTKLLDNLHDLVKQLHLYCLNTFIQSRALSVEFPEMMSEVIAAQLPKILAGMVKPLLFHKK
Method: The progesterone receptor (PR) binding assays were performed at CEREP (Celle I'Evescault, France). The binding to the bovine progesterone receptor (Assay Cat No: Progesterone receptor-814) was measured using 3H-R5020 as ligand and uterus tissue as the source of progesterone receptor. The assay was performed as described by Hurd & Moudgil [1988]. […] The results of the receptor binding assay are presented as the individual pKi values for the bovine PR which were determined by measuring the binding activity for a concentration range of each compound.

| SMILES | Ki |
| --- | --- |
| CC(=O)[C@H]1CC[C@H]2[C@@H]3CCC4=CC(=O)CC[C@@]4(C)[C@@H]3CC[C@]12CCCc1ccc(/C=N/O)cc1 [No. 1] | 1000 nM |
| CC(=O)[C@H]1CC[C@H]2[C@@H]3C=CC4=CC(=O)CC[C@@]4(C)[C@@H]3CC[C@]12CCCc1ccc(/C=N/O)cc1 [No. 2] | 200 nM |
| CCNC(=O)O/N=C/c1ccc(CCC[C@]23CC[C@@H]4[C@@H](CCC5=CC(=O)CC[C@]54C)[C@@H]2CC[C@@H]3C(C)=O)cc1 [No. 4] | 501 nM |
| CCNC(=O)O/N=C/c1ccc(CCC[C@]23CC[C@@H]4[C@@H](C=CC5=CC(=O)CC[C@]54C)[C@@H]2CC[C@@H]3C(C)=O)cc1 [No. 5] | 200 nM |
| CCNC(=O)O/N=C/c1ccc(CCC[C@]23CC[C@@H]4[C@@H](C=CC5=CC(=O)CC[C@]54C)[C@@H]2CC[C@]3(OC(=O)OCC)C(C)=O)cc1 [No. 6] | 501 nM |
| CC(=O)[C@H]1CC[C@H]2[C@@H]3C=CC4=CC(=O)CC[C@@]4(C)[C@@H]3CC[C@]12CCCc1ccc(C(N)=O)cc1 [No. 13] | 200 nM |
